EPA's ToxValDB 9.5
Several values for one entry are separate records, joined by “and”; a condition that tells them apart may be missing. Equal entries are not always repeated.

Key:
[1] = system: Oryctolagus sp.; conditions: duration: 12 days, inhalation, New Zealand
[2] = system: Rattus norvegicus; conditions: inhalation; for NEL / LEL: Crl:CD(SD) BR
[3] = reproduction developmental, F, generation: P0, P0: Developmental: Uterus: Implantation + P0: Developmental: Uterus: Pre-Implantation Loss + P0: Developmental: Uterus: Resorptions, Mean/…
[4] = reproduction developmental, F, generation: P0, P0: Developmental: Uterus: Resorptions, Mean/Litter + P0: General Toxicity: Whole Body: Body Weight Change + P0: General Toxicity: Whole …
[5] = reproduction developmental, F, generation: P0, P0: Whole Body: Clinical Observations
[6] = chronic, duration: 2 years, F, Crl:CD BR, Developmental: Whole Body: Survival + General Toxicity: Whole Body: Body Weight Change + Hepatic: Liver: Liver Histopathology + Hepatic: …
[7] = chronic, duration: 2 years, F, Blood: Eosinophils + Blood: Monocytes
[8] = chronic, duration: 2 years, F, Blood: Sorbitol Dehydrogenase (SDH), Blood
[9] = chronic, duration: 2 years, F, Liver: Liver Weight, Absolute
[10] = chronic, duration: 2 years, F, Mammary Gland: Mammary Gland Fibroadenoma
[11] = chronic, duration: 2 years, M, Crl:CD BR, Developmental: Whole Body: Survival + General Toxicity: Whole Body: Body Weight Change + Hepatic: Liver: Focal Liver Necrosis + Hepatic: …
[12] = chronic, duration: 2 years, M, Blood: Monocytes + Liver: Aspartate Aminotransferase (AST), Blood
[13] = chronic, duration: 2 years, M, Heart: Heart Weight, Absolute + Liver: Focal Liver Necrosis + Lung: Cholesterol Cleft/Granuloma in Lung
[14] = chronic, duration: 2 years, M, Kidney: Renal Tubular Pigment + Whole Body: Body Weight Change + Whole Body: Terminal Body Weight, Absolute
[15] = chronic, duration: 2 years, M, Kidney: Urobilinogen, Urine

Structure (SMILES): FC(Cl)C(F)(F)F (stereo unspecified) [2-Chloro-1,1,1,2-tetrafluoroethane]
- NOAEL ([1]; developmental, M/F, generation: F1, F1: Developmental: Uterus: Dead Fetuses + F1: Developmental: Uterus: Fetuses, Live + F1: Developmental: Whole Body: Body Weight, Fetal + F1…): 279000 mg/m3
- NOAEL ([1]; developmental, M/F, generation: F1, F1: Developmental: Whole Body: External Abnormalities + F1: Developmental: Whole Body: Live Pups Born + F1: Developmental: Whole Body: Pup …): 27900 mg/m3 and 83700 mg/m3
- NEL ([1]; developmental, M/F, generation: F1, F1: Uterus: Fetuses, Dead + F1: Uterus: Fetuses, Live + F1: Whole Body: Body Weight, Fetal + F1: Whole Body: External Abnormalities): 279000 mg/m3
- NEL ([1]; developmental, M/F, generation: F1, F1: Whole Body: External Abnormalities + F1: Whole Body: Live Pups Born + F1: Whole Body: Pup Weight Relative to Litter + F1: Whole Body: …): 279000 mg/m3
- NOAEL ([1]; reproduction developmental, F, generation: P0, P0: Developmental: Uterus: Implantation + P0: Developmental: Uterus: Number of Viable Fetuses + P0: Developmental: Uterus: Pre-Implantation …): 279000 mg/m3
- LOAEL [1, 3]: 83700 mg/m3
- NOAEL [1, 3]: 27900 mg/m3
- NOAEL ([1]; reproduction developmental, F, generation: P0, P0: Developmental: Uterus: Implantation + P0: Developmental: Uterus: Pre-Implantation Loss + P0: Reproductive: Ovary: Corpora Lutea): 279000 mg/m3
- LOAEL [1, 4]: 279000 mg/m3
- NOAEL [1, 4]: 83700 mg/m3
- NEL ([1]; reproduction developmental, F, generation: P0, P0: Liver: Liver Weight, Absolute + P0: Liver: Liver Weight, Relative + P0: Ovary: Corpora Lutea + P0: Uterus: Implantation + P0: Uterus: …): 279000 mg/m3
- NEL ([1]; reproduction developmental, F, generation: P0, P0: Ovary: Corpora Lutea + P0: Uterus: Implantation + P0: Uterus: Pre-Implantation Loss + P0: Uterus: Resorptions, Mean/Litter + P0: Whole …): 279000 mg/m3
- LEL [1, 5]: 279000 mg/m3
- NEL [1, 5]: 83700 mg/m3
- LOAEL ([2]; chronic, duration: 2 years, F, Crl:CD BR, Cardiovascular: Aorta: Aorta Histopathology + Cardiovascular: Heart: Heart Histopathology + Cardiovascular: Heart: Heart Weight, Absolute + …): 279000 mg/m3
- LOAEL [2, 6]: 279000 mg/m3
- NOAEL [2, 6]: 55800 mg/m3
- LOAEL ([2]; chronic, duration: 2 years, F, Crl:CD BR, Hepatic: Blood: Globulin (G) + Hepatic: Liver: Alanine Aminotransferase (ALT) + Hepatic: Liver: Albumin (A) + Hepatic: Liver: Alkaline …): 11200 mg/m3
- NEL ([2]; chronic, duration: 2 years, F, Adrenal: Adrenal Gland Histopathology + Adrenal: Adrenal Gland Weight, Absolute + Aorta: Aorta Histopathology + Brain: Brain Histopathology…): 279000 mg/m3
- NEL ([2]; chronic, duration: 2 years, F, Blood: Abnormal Lymphocytes + Blood: Bands + Blood: Basophils + Blood: Calcium (CA), Blood + Blood: Globulin (G), Blood + Blood: Glucose (…): 279000 mg/m3
- LEL ([2]; chronic, duration: 2 years, F, Blood: Chloride (CL), Blood + Kidney: Creatine Kinase (CK), Blood + Kidney: Creatinine (CREAT), Blood): 11200 mg/m3
- LEL [2, 7]: 55800 mg/m3
- NEL [2, 7]: 11200 mg/m3
- LEL [2, 8]: 279000 mg/m3
- NEL [2, 8]: 55800 mg/m3
- LEL [2, 9]: 55800 mg/m3
- NEL [2, 9]: 11200 mg/m3
- LEL [2, 10]: 279000 mg/m3
- NEL [2, 10]: 55800 mg/m3
- LEL ([2]; chronic, duration: 2 years, F, Whole Body: Body Weight Change + Whole Body: Terminal Body Weight, Absolute): 11200 mg/m3
- LOAEL ([2]; chronic, duration: 2 years, M, Crl:CD BR, Cardiovascular: Aorta: Aorta Histopathology + Cardiovascular: Heart: Heart Histopathology + Cardiovascular: Heart: Heart Weight, Absolute + …): 279000 mg/m3
- LOAEL [2, 11]: 279000 mg/m3
- NOAEL [2, 11]: 55800 mg/m3
- LOAEL ([2]; chronic, duration: 2 years, M, Crl:CD BR, Hepatic: Blood: Globulin (G) + Hepatic: Liver: Alanine Aminotransferase (ALT) + Hepatic: Liver: Albumin (A) + Hepatic: Liver: Alkaline …): 11200 mg/m3
- NEL ([2]; chronic, duration: 2 years, M, Adrenal: Adrenal Gland Histopathology + Adrenal: Adrenal Gland Weight, Absolute + Aorta: Aorta Histopathology + Brain: Brain Histopathology…): 279000 mg/m3
- NEL ([2]; chronic, duration: 2 years, M, Blood: Abnormal Lymphocytes + Blood: Bands + Blood: Basophils + Blood: Calcium (CA), Blood + Blood: Eosinophils + Blood: Globulin (G), Blood…): 279000 mg/m3
- LEL ([2]; chronic, duration: 2 years, M, Blood: Chloride (CL), Blood + Liver: Alanine Aminotransferase (ALT), Blood): 11200 mg/m3
- LEL [2, 12]: 55800 mg/m3
- NEL [2, 12]: 11200 mg/m3
- LEL [2, 13]: 279000 mg/m3
- NEL [2, 13]: 55800 mg/m3
- LEL [2, 14]: 55800 mg/m3
- NEL [2, 14]: 11200 mg/m3
- LEL [2, 15]: 279000 mg/m3
- NEL [2, 15]: 55800 mg/m3
- LEL ([2]; chronic, duration: 2 years, M, Liver: Liver Weight, Absolute + Spleen: Spleen Weight, Absolute): 11200 mg/m3
- LOAEL ([2]; developmental, duration: 9 days, M/F, Crl: CD BR, generation: F1, F1: Developmental: Uterus: Dead Fetuses + F1: Developmental: Uterus: Fetuses, Live + F1: General Toxicity: Whole Body: Body Weight, Fetal): 279000 mg/m3
- NOAEL ([2]; developmental, duration: 9 days, M/F, Crl:CD BR, generation: F1, F1: Developmental: Head: Head Abnormalities + F1: Developmental: Whole Body: External Abnormalities + F1: Developmental: Whole Body: Live …): 27900 mg/m3 and 83700 mg/m3
- NEL ([2]; developmental, duration: 9 days, M/F, generation: F1, F1: Head: Head Abnormalities + F1: Whole Body: External Abnormalities + F1: Whole Body: Live Pups Born + F1: Whole Body: Skeletal …): 279000 mg/m3
- LEL ([2]; developmental, duration: 9 days, M/F, generation: F1, F1: Whole Body: Pup Weight Relative to Litter): 27900 mg/m3
- LOAEL ([2]; reproduction developmental, duration: 9 days, F, Crl: CD BR, generation: P0, P0: Developmental: Uterus: Implantation + P0: Developmental: Uterus: Resorptions, Early + P0: Developmental: Uterus: Resorptions, Total + P0…): 279000 mg/m3
